Results reported in patent US8551937B2, “Peptide having an extending action for half-life of object peptide in plasma” (priority 2008, dated 2013).
Where two headings read alike, the source gives them in different places. Where a SMILES comes first, the peptide text is derived from it. Bridges are numbered along the chain shown (N, C = ends).

Tests used:
[1] = biological target: T1, neutral endopeptidase (NEP) (Homo sapiens, UniProt P08473); test: Resistance to peptidase: stability to hNEP (HPLC residual rate); assay type: in vitro ADME; details: human, isolated enzyme neprilysin, pH 6.5
T1 construct: purchased R&D Systems, Inc., U.S.A
T1 sequence (P08473 whole entry): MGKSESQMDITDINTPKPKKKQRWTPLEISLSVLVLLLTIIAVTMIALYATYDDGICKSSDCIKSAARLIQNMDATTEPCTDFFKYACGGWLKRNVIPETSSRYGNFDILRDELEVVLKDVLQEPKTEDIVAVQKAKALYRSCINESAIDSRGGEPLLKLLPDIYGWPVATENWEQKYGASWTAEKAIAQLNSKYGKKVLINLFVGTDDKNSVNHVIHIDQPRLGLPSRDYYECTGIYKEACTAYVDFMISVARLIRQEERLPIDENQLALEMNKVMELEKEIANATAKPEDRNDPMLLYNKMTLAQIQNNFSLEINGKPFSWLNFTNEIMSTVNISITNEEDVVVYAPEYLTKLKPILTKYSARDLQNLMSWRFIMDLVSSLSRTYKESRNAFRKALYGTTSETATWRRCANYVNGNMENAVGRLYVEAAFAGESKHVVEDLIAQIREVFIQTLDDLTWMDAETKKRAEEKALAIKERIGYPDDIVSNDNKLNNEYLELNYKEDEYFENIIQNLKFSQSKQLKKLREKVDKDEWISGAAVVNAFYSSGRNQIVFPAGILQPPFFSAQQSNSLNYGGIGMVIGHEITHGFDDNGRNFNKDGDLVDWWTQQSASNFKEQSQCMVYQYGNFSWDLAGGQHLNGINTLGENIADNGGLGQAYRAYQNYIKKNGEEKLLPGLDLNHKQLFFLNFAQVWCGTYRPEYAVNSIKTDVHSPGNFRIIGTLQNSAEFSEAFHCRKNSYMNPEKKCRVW
Protocol: The experiment was conducted in N=2 for each sample. Native CNP-22, chimeric CNP (A, B) (structure mentioned already; final concentration: 0.5 μg/mL) and 100 μL of reaction solution (medium: 20 mM MES, pH 6.5) of human type recombinant neutral endopeptidase (hNEP, manufactured by R&D Systems, Inc., U.S.A.) were prepared. […] Distilled water (100 μL) was added to the sample after boiling followed by well mixing and 50 μL thereof was analyzed in a water-acetonitrile system using a high-performance liquid chromatography system LC-10A (manufactured by Shimadzu). The analytical data were analyzed by a Chromato-Pack (CRA-10A, manufactured by Shimadzu) and area of the peak zone of unchanged substance was calculated. The area of average zone of unchanged substance when made to react at 37° C. was divided by the area of average zone of the boiled sample to calculate the residual rate of the unchanged substance after 1 hour.

[2] = CNP immunoreactivity concentration in plasma after administration to rats (competitive RIA), pharmacokinetic parameters (Example 2); assay type: in vivo, rat; details: rat, plasma, 0.1 mg/kg, male rats, N = 3, mean ± SD; for half-life: read-out: T½
Protocol: Pharmacokinetic parameters were calculated from the resulting changes in immunoreactivity concentrations in plasma. At that time, WinNonlin Professional Ver. 4.0.1 (manufactured by Pharsight Corporation, U.S.A.) was used as the analytical software. Method for the calculation of each parameter is mentioned as follows.
Concentration at time 0 (C0; extrapolated value, ng/mL), area under the curve for concentration in plasma vs. time (AUC; ng.min/mL) and quenching half-life (T½; minute(s)) were calculated as follows. C0 was calculated as a value at time by means of extrapolation from the changes in immunoreactivity concentration in plasma at each blood collection period. AUC was calculated by a trapezoidal method using the immunoreactivity concentrations in plasma at all measuring points (t) and an extrapolated value until the infinitive time was determined. T½ was calculated by means of a least-squares method from the inclination of a straight line connecting several points in a disappearing phase of the immunoreactivity concentration in plasma. In the case of a subcutaneous administration, C0 was not determined but the maximum concentration in plasma (Cmax; ng/mL) and the time reaching the maximum concentration in plasma (Tmax; min) were determined.
Changes in CNP immunoreactivity concentration in plasma of native CNP-22 and chimeric peptide (chimeric CNP) where a half-life-extension peptide was added to CNP were investigated.
The experiment was conducted in the same manner as in Example 1 that rats where polyethylene tube was previously inserted into thigh artery were used under an anesthetizing condition with Nembutal and male SD strain rats of 7 weeks age (purchased from Nippon Charles River) were used where one group comprised 3 rats. […] At that time, a rabbit polyclonal antibody (#2) recognizing a ring part of native CNP-22 was used as an antibody and ^125I-[Tyr^0] CNP was used as a labeling compound. Pharmacokinetic analysis was carried out by the same method as in Example 1.

remaining at 1 h, 0.5 μg/mL [1]: 84.3%
AUC(0-inf) ([2]; sc, subcutaneous): 24.9 ng·h/mL
Cmax ([2]; sc, subcutaneous): 27.9 ± 2.7 ng/mL
Tmax ([2]; sc, subcutaneous): 13.3 min
half-life ([2]; sc, subcutaneous): 20.7 ± 7.5 min
AUC(0-inf) ([2]; intravenous): 107 ng·h/mL
C0 ([2]; intravenous, extrapolated value): 1030 ± 358 ng/mL
half-life ([2]; intravenous): 21.7 ± 6.1 min
SMILES: CC[C@H](C)[C@@H]1NC(=O)[C@H](CCCNC(=N)N)NC(=O)[C@H](CC(=O)O)NC(=O)[C@H](CC(C)C)NC(=O)[C@H](CCCCN)NC(=O)[C@H](CC(C)C)NC(=O)CNC(=O)[C@H](Cc2ccccc2)NC(=O)[C@@H](NC(=O)[C@@H](NC(=O)[C@H](CCC(N)=O)NC(=O)[C@H](CCC(N)=O)NC(=O)[C@H](CCCNC(=N)N)NC(=O)[C@H](CCCCN)NC(=O)[C@H](CCC(=O)O)NC(=O)[C@H](CO)NC(=O)[C@H](CCCCN)NC(=O)[C@H](CCCCN)NC(=O)[C@@H]2CCCN2C(=O)[C@@H]2CCCN2C(=O)[C@H](C)NC(=O)[C@H](CCCCN)NC(=O)[C@H](CC(C)C)NC(=O)[C@H](CCC(N)=O)NC(=O)[C@@H]2CCCN2C(=O)[C@@H](N)CCCNC(=N)N)C(C)C)CSSC[C@@H](C(=O)O)NC(=O)CNC(=O)[C@H](CC(C)C)NC(=O)CNC(=O)[C@H](CO)NC(=O)[C@H](CCSC)NC(=O)[C@H](CO)NC(=O)CNC1=O [Chimeric CNP (A)] (H-RPQLKAPPKKSEKRQQVCFGLKLDRIGSMSGLGC-OH; disulfide 18-34; N-terminus and C-terminus assumed)
